Data: the supplement of paper PMC4932681

Columns and labels:
ZR-75-1 Tam1 [1] = assay: drug sensitivity score (DSS) (DSS (dimensionless)); higher = more sensitive; extreme values may be limits of the assay; settings: 4-OH-tamoxifen in medium 1 µM; 72 h
How it was run: (§1)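 After seeding into 384-well plates with library drugs at five concentrations spanning a 10 000-fold range, breast cancer cell lines and their resistant derivatives were incubated 72 h at 37 °C. Resistant lines received medium with 1 μM of the selecting drug. CellTiter-Glo signal was read on a PHERAstar and scaled to vehicle-only and positive controls. Drug sensitivity score, relative IC50 (the curve midpoint) and top-dose inhibition came from logistic fits run in the Breeze pipeline.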

MCF-7 Tam1 [2] = assay: as above; settings: 4-OH-tamoxifen in medium 1 µM; 72 h
How it was run: as §1

MCF-7 [3] = assay: as above; settings: 72 h
How it was run: as §1

BT-474 Tam2 [4] = assay: as above; settings: 4-OH-tamoxifen in medium 1 µM; 72 h
How it was run: as §1

ZR-75-1 [5] = assay: as above; settings: 72 h
How it was run: as §1

ZR-75-1 Tam2 [6] = assay: as above; settings: 4-OH-tamoxifen in medium 1 µM; 72 h
How it was run: as §1

BT-474 Tam1 [7] = assay: as above; settings: 4-OH-tamoxifen in medium 1 µM; 72 h
How it was run: as §1

T-47D Tam2 [8] = assay: as above; settings: 4-OH-tamoxifen in medium 1 µM; 72 h
How it was run: as §1

T-47D [9] = assay: as above; settings: 72 h
How it was run: as §1

T-47D Tam1 [10] = assay: as above; settings: 4-OH-tamoxifen in medium 1 µM; 72 h
How it was run: as §1

BT-474 [11] = assay: as above; settings: 72 h
How it was run: as §1

ZR-75-1 Tam1 [12] = assay: relative IC50 (midpoint of fitted logistic curve, plateau may be below 50% inhibition; CellTiter-Glo viability); higher = less potent; settings: 4-OH-tamoxifen in medium 1 µM; 72 h
How it was run: as §1

MCF-7 Tam1 [13] = assay: as above; settings: 4-OH-tamoxifen in medium 1 µM; 72 h
How it was run: as §1

MCF-7 [14] = assay: as above; settings: 72 h
How it was run: as §1

BT-474 Tam2 [15] = assay: as above; settings: 4-OH-tamoxifen in medium 1 µM; 72 h
How it was run: as §1

ZR-75-1 [16] = assay: as above; settings: 72 h
How it was run: as §1

ZR-75-1 Tam2 [17] = assay: as above; settings: 4-OH-tamoxifen in medium 1 µM; 72 h
How it was run: as §1

T-47D Tam2 [18] = assay: as above; settings: 4-OH-tamoxifen in medium 1 µM; 72 h
How it was run: as §1

T-47D [19] = assay: as above; settings: 72 h
How it was run: as §1

T-47D Tam1 [20] = assay: as above; settings: 4-OH-tamoxifen in medium 1 µM; 72 h
How it was run: as §1

BT-474 [21] = assay: as above; settings: 72 h
How it was run: as §1

BT-474 Tam1 [22] = assay: as above; settings: 4-OH-tamoxifen in medium 1 µM; 72 h
How it was run: as §1

SMILES | drug sensitivity score (ZR-75-1 Tam1 [1]) | drug sensitivity score (MCF-7 Tam1 [2]) | drug sensitivity score (MCF-7 [3]; 4-OH-tamoxifen in medium 0 µM) | drug sensitivity score (MCF-7 [3]; 4-OH-tamoxifen in medium 1 µM) | drug sensitivity score (BT-474 Tam2 [4]) | drug sensitivity score (ZR-75-1 [5]; 4-OH-tamoxifen in medium 0 µM) | drug sensitivity score (ZR-75-1 [5]; 4-OH-tamoxifen in medium 1 µM) | drug sensitivity score (ZR-75-1 Tam2 [6]) | drug sensitivity score (BT-474 Tam1 [7]) | drug sensitivity score (T-47D Tam2 [8]) | drug sensitivity score (T-47D [9]; 4-OH-tamoxifen in medium 0 µM) | drug sensitivity score (T-47D [9]; 4-OH-tamoxifen in medium 1 µM) | drug sensitivity score (T-47D Tam1 [10]) | drug sensitivity score (BT-474 [11]; 4-OH-tamoxifen in medium 0 µM) | drug sensitivity score (BT-474 [11]; 4-OH-tamoxifen in medium 1 µM) | relative IC50 (ZR-75-1 Tam1 [12]) | relative IC50 (MCF-7 Tam1 [13]) | relative IC50 (MCF-7 [14]; 4-OH-tamoxifen in medium 0 µM) | relative IC50 (MCF-7 [14]; 4-OH-tamoxifen in medium 1 µM) | relative IC50 (BT-474 Tam2 [15]) | relative IC50 (ZR-75-1 [16]; 4-OH-tamoxifen in medium 0 µM) | relative IC50 (ZR-75-1 [16]; 4-OH-tamoxifen in medium 1 µM) | relative IC50 (ZR-75-1 Tam2 [17]) | relative IC50 (T-47D Tam2 [18]) | relative IC50 (T-47D [19]; 4-OH-tamoxifen in medium 0 µM) | relative IC50 (T-47D [19]; 4-OH-tamoxifen in medium 1 µM) | relative IC50 (T-47D Tam1 [20]) | relative IC50 (BT-474 [21]; 4-OH-tamoxifen in medium 0 µM) | relative IC50 (BT-474 [21]; 4-OH-tamoxifen in medium 1 µM) | relative IC50 (BT-474 Tam1 [22])
Cc1cn(-c2cc(NC(=O)c3ccc(C)c(Nc4nccc(-c5cccnc5)n4)c3)cc(C(F)(F)F)c2)cn1 [Nilotinib] | 0 | 0 | 0 | 0 | 0 | 0 | 0 | 0 | 1.63 | 0 | 0 | 0 | 0 | 0 | 0 | > 10 µM | > 10 µM | > 10 µM | > 10 µM | > 10 µM | > 10 µM | > 10 µM | > 10 µM | > 10 µM | > 10 µM | > 10 µM | > 10 µM | > 10 µM | > 10 µM | 
Cc1cc2c(F)c(Oc3ncnn4cc(OC[C@@H](C)O)c(C)c34)ccc2[nH]1 [Brivanib] | 0 | 0 | 0 | 0 | 0 | 0 | 0 | 0 | 0 | 0 | 0 | 0 | 0 | 0 | 0 | > 1 µM | > 1 µM | > 1 µM | > 1 µM | > 1 µM | > 1 µM | > 1 µM | > 1 µM | > 1 µM | > 1 µM | > 1 µM | > 1 µM | > 1 µM | > 1 µM | 
CN1CCC(COc2cnc(-c3cccc(Cn4nc(-c5cccc(C#N)c5)ccc4=O)c3)nc2)CC1 | 0 | 0 | 0 | 0.0353 | 1.22 | 0 | 0 | 0 | 0 | 0 | 0 | 0 | 3.13 | 0 | 0 | > 1 µM | > 1 µM | > 1 µM |  |  | > 1 µM | > 1 µM | > 1 µM | > 1 µM | > 1 µM | > 1 µM | 0.314 µM | > 1 µM | > 1 µM | > 1 µM
CNC(=O)c1ccc(N2C(=S)N(c3ccc(C#N)c(C(F)(F)F)c3)C(=O)C23CCC3)cc1F [RD162] | 0 | 0 | 0 | 1.42 | 0.498 | 0 | 0 | 0 | 0.0464 | 0 | 0 | 0.215 | 0 | 0 | 0 | > 10 µM | > 10 µM | > 10 µM |  |  | > 10 µM | > 10 µM | > 10 µM | > 10 µM | > 10 µM |  | > 10 µM | > 10 µM | > 10 µM | 
Clc1ccc(Nc2nnc(Cc3ccncc3)c3ccccc23)cc1 [Vatalanib] | 0 | 0 | 0 | 0 | 0.0042 | 0 | 0 | 0 | 0 | 0 | 0 | 0 | 0 | 0 | 0 | > 10 µM | > 10 µM | > 10 µM | > 10 µM |  | > 10 µM | > 10 µM | > 10 µM | > 10 µM | > 10 µM | > 10 µM | > 10 µM | > 10 µM | > 10 µM | 
Oc1ccc2c(c1)CC[C@H](c1ccccc1)[C@@H]2c1ccc(OCCN2CCCC2)cc1 [Lasofoxifene] | 0 | 0 | 1.49 | 0.854 | 0.434 | 0 | 0 | 0 | 1.01 | 0 | 0 | 0 | 0 | 0 | 0.881 | > 1 µM | > 1 µM |  |  |  | > 1 µM | > 1 µM | > 1 µM | > 1 µM | > 1 µM | > 1 µM | > 1 µM | > 1 µM |  | 0.449 µM
CC1(C)NC(=O)N(c2ccc([N+](=O)[O-])c(C(F)(F)F)c2)C1=O [Nilutamide] | 0 | 0 | 0 | 0.145 | 0 | 0 | 0 | 0 | 0 | 0 | 0 | 0 | 0 | 0 | 0 | > 10 µM | > 10 µM | > 10 µM |  |  | > 10 µM | > 10 µM | > 10 µM | > 10 µM | > 10 µM | > 10 µM | > 10 µM | > 10 µM | > 10 µM | > 10 µM
O=NN(CCCl)C(=O)NC1CCCCC1 [Lomustine] | 0 | 0 | 0.0319 | 0.0924 | 0 | 0 | 0 | 0 | 0 | 0 | 0 | 0 | 0 | 0 | 0 | > 10 µM | > 10 µM |  |  | > 10 µM | > 10 µM | > 10 µM | > 10 µM | > 10 µM | > 10 µM | > 10 µM | > 10 µM | > 10 µM | > 10 µM | 
